Assay results published in ChEMBL document CHEMBL1143131, “Synthesis and anti-HIV activity of GS-9148 (2'-Fd4AP), a novel nucleoside phosphonate HIV reverse transcriptase inhibitor” (Bioorg Med Chem Lett, 2008).

How the values were obtained:
[1] = Cytotoxicity against human MT2 cells; format: cell-based
[2] = system: Human immunodeficiency virus; assay: Antiviral activity against HIV with reverse transcriptase K65R mutation assessed as fold resistance relative to wild type; format: functional
[3] = system: Human immunodeficiency virus 1; assay: Antiviral activity against wild type HIV1 3B in MT2 cells; format: functional, organism-based; conditions: Human immunodeficiency virus 1, 3B
[4] = system: Human immunodeficiency virus; assay: Antiviral activity against HIV with reverse transcriptase 6TAMs mutation assessed as fold resistance relative to wild type; format: functional
[5] = system: Human immunodeficiency virus; assay: Antiviral activity against HIV with reverse transcriptase M184V mutation assessed as fold resistance relative to wild type; format: functional
[6] = target: Human immunodeficiency virus type 1 reverse transcriptase (Human immunodeficiency virus 1, UniProt Q72547); assay: Inhibition of wild type HIV 3B reverse transcriptase

Row | Structure (SMILES) | CC50 [1] [µM] | Activity [2] | EC50 [3] [µM] | Activity [4] | Activity [5] | IC50 [6] [µM]
1 | Cc1cn([C@H]2C[C@H](N=[N+]=[N-])[C@@H](CO)O2)c(=O)[nH]c1=O [ZIDOVUDINE] | > 200 | 1.2 | 0.16 | >50 | 0.7 | 
2 | Nc1ncnc2c1ncn2[C@H]1C=C[C@@H](OCP(=O)(O)O)O1 | > 1000 | 2.9 | 2.1 | 2.9 | 0.9 | 0.6
3 | Nc1ncnc2c1ncn2[C@@H]1O[C@H](OCP(=O)(O)O)C=C1F [GS-9148] | > 1000 | 1.1 |  | 4.3 | 0.8 | 1.9
4 | Nc1ncnc2c1ncn2[C@@H]1C=C[C@H](OCP(=O)(O)O)O1 | > 1000 | 3.6 | 5.9 | 13.7 | 7.1 | 
5 | C[C@H](Cn1cnc2c(N)ncnc21)OCP(=O)(O)O [TENOFOVIR ANHYDROUS] | > 500 | 4.3 |  | 8.8 | 0.7 | 
